For experiment [1], the target named is T1, pseudo-kinase domain (JH2, amino-acids 536-812 with 3 surface mutations W659A, W777A, F794H) of human Wild Type JAK2 (Homo sapiens, UniProt O60674, F794H/W659A/W777A).
T1 construct: pseudo-kinase domain (JH2, amino-acids 536-812 with 3 surface mutations W659A, W777A, F794H); His (C); Avi (biotinylated) (C); purchased BPS Bioscience 79463; host or cells: baculovirus expression system
The experiment can be described thus: JAK2 LanthaScreen JH2-WT Binding Assay. The following applies: JAK2 JH2-WT (0.145 nM), 50 nM Fluorescent JAK2-JH2 Tracer, 1 hour at 25° C.; read-out: JH2 BIND WT. As for the experimental part:
Example B. JAK2 LanthaScreen JH2-WT Binding Assay
(§1) JAK2 JH2-WT binding assay utilizes pseudo-kinase domain (JH2, amino-acids 536-812 with 3 surface mutations W659A, W777A, F794H) of human Wild Type JAK2 expressed as C-terminal His-Avi-tagged, biotinylated protein in a baculovirus expression system (BPS Bioscience, Catalog #79463). The assay was conducted in black 384-well polystyrene plates in a final reaction volume of 20 μL. JAK2 JH2-WT (0.145 nM) was incubated with compounds (100 nL serially diluted in DMSO) in the presence of 50 nM Fluorescent JAK2-JH2 Tracer (MedChem Express Catalog #HY-102055) and 0.25 nM Streptavidin-Tb cryptate (Cisbio Part #610SATLB) in assay buffer (50 mM Tris, pH=7.5, 10 mM MgCl2, 0.01% Brij-35, 0.1% BSA, 1 mM EGTA, 5% Glycerol and 5 mM DTT). Non-specific binding was accessed in the presence of 2 mM ATP. After incubation for 1 hour at 25° C., LanthaScreen signals were read on a PHERAstar FS plate reader (BMG LABTECH). Data was analyzed with IDBS XLfit and GraphPad Prism 5.0 software using a four parameter dose response curve to determine IC50 for each compound.
For orientation: TR-FRET usually uses a lanthanide donor and a delayed reading to cut background.

Experiment [2] addresses T2, catalytic domain (JH1, amino acids 826-1132) of human JAK2 (Homo sapiens, UniProt O60674).
T2 construct: catalytic domain (JH1, amino acids 826-1132) of human JAK2; FLAG (N); purchased Carna Biosciences 08-445-20N; host or cells: baculovirus expression system
The experiment can be described thus: JAK2 LanthaScreen JH1 Binding Assay. Particulars: JAK2 JH1 (1.5 nM), 50 nM fluorescent JAK2-JH1 tracer, 2 hours at 25° C.; read-out: JH1 BIND. As for the experimental part:
Example A. JAK2 LanthaScreen JH1 Binding Assay
JAK2 JH1 binding assay utilizes catalytic domain (JH1, amino acids 826-1132) of human JAK2 expressed as N-terminal FLAG-tagged, biotinylated protein in a baculovirus expression system (Carna Biosciences, Product #08-445-20N). The assay was conducted in black 384-well polystyrene plates in a final reaction volume of 20 μL. JAK2 JH1 (1.5 nM) was incubated with compounds (100 nL serially diluted in DMSO) in the presence of 50 nM fluorescent JAK2-JH1 tracer and 0.5 nM Streptavidin-Tb cryptate (Cisbio Part #610SATLB) in assay buffer (50 mM Tris, pH=7.5, 10 mM MgCl2, 0.01% Brij-35, 0.1% BSA, 1 mM EGTA, 5% Glycerol and 5 mM DTT). Non-specific binding was accessed in the presence of 2 mM ATP. After incubation for 2 hours at 25° C., LanthaScreen signals were read on a PHERAstar FS plate reader (BMG LABTECH). Data was analyzed with IDBS XLfit and GraphPad Prism 5.0 software using a four parameter dose response curve to determine IC50 for each compound.

For experiment [3], the target named is T3, pseudo-kinase domain (JH2, amino-acids 536-812 with 3 surface mutations W659A, W777A, F794H) of human V617F mutant JAK2 (Homo sapiens, UniProt O60674, F794H/V617F/W659A/W777A).
T3 construct: pseudo-kinase domain (JH2, amino-acids 536-812 with 3 surface mutations W659A, W777A, F794H); His (C); Avi (biotinylated) (C); purchased BPS Bioscience 79498; host or cells: baculovirus expression system
The experiment can be described thus: JAK2 LanthaScreen JH2-V617F Binding Assay. Particulars: JAK2 JH2-V617F (0.26 nM), 50 nM Fluorescent JAK2-JH2 Tracer, 1 hour at 25° C.; read-out: JH2 BIND V617F. On the procedure: Example C. JAK2 LanthaScreen JH2-V617F Binding Assay
as §1, with “JH2-V617F” for “JH2-WT”, “V617F mutant” for “Wild Type”, “#79498).” for “#79463).”, “JH2-V617F (0.26” for “JH2-WT (0.145”

This passage reports IC50 results from patent US11780840B2 (Incyte Corporation, priority 2020, dated 2023).

Each structure is given as a SMILES string.

T1 sequence (O60674 536-812 W659A/W777A/F794H): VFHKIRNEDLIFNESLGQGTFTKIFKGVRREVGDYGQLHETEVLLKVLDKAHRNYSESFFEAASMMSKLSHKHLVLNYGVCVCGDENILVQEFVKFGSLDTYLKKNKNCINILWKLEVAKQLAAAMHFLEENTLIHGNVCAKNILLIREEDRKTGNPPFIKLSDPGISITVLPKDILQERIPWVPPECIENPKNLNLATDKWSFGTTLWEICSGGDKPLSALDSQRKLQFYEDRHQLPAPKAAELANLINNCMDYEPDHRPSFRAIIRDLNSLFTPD
T2 sequence (O60674 826-1132): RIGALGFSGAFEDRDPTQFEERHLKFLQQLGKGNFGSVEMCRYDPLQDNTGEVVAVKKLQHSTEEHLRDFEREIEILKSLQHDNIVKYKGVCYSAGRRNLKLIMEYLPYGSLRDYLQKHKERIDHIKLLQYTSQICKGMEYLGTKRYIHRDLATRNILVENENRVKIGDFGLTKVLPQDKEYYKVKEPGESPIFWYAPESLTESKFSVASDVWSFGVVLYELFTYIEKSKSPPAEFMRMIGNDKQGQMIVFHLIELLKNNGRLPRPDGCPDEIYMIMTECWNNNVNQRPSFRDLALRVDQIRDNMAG
T3 sequence (O60674 536-812 V617F/W659A/W777A/F794H): as the sequence (O60674 536-812 W659A/W777A/F794H) above, with V82F counted along it

Consider `CC(C)n1c(=O)n(C)c2cnc3[nH]c(Cc4ccc(C#N)cc4)c(-c4ccc5c(cnn5C)c4)c3c21` [Example 96, 4-((1-Isopropyl-3-methyl-8-(1-methyl-1H-indazol-5-yl)-2-oxo-1,2,3,6-tetrahydroimidazo [4,5-d]pyrrolo[2,3-b]pyridin-7-yl)methyl) benzonitrile], for which the IC50 in experiment [1], in experiment [2] and in experiment [3] was greater than 1000 nM in each case.
`COc1ccc(-n2c(=O)n(C)c3cnc4[nH]c(-c5ccc(CN6CCC(S(C)(=O)=O)CC6)cc5)cc4c32)cc1` [Example 2, 1-(4-Methoxyphenyl)-3-methyl-7-(4-((4-(methylsulfonyl)piperidin-1-yl)methyl)phenyl)-3,6-dihydroimidazo[4,5-d]pyrrolo[2,3-b] pyridin-2(1H)-one]: the results for the IC50 in experiment [1], in experiment [2] and in experiment [3] were 10 to 100 nM, 10 to 100 nM and 100 to 500 nM, respectively.
For the compound `Cn1ncc2cc(-c3c(-c4cccnc4)[nH]c4ncc5c(c34)n(C3CCCC3)c(=O)n5C)ccc21` [Example 61, 1-Cyclopentyl-3-methyl-8-(1-methyl-1H-indazol-5-yl)-7-(pyridin-3-yl)-3,6-dihydroimidazo[4,5-d]pyrrolo[2,3-b]pyridin-2(1H)-one], the IC50 in experiment [1] was no more than 10 nM; in experiment [2] it was greater than 1000 nM; in experiment [3], no more than 10 nM.
Regarding `CC(C)n1c(=O)n(C)c2cnc3[nH]c(-c4cnn(CC(C)(C)O)c4)c(-c4cc5c(s4)CCNC5)c3c21` [Example 82, 7-(1-(2-Hydroxy-2-methylpropyl)-1H-pyrazol-4-yl)-1-isopropyl-3-methyl-8-(4,5,6,7-tetrahydrothieno[3,2-c]pyridin-2-yl)-3,6-dihydroimidazo[4,5-d]pyrrolo[2,3-b]pyridin-2(1H)-one], the IC50 is 100 to 500 nM in experiment [1], greater than 1000 nM in experiment [2] and 500 to 1000 nM in experiment [3].
In the same order, the values of `CC(C)n1c(=O)n(C)c2cnc3[nH]c(-c4cnn(CC(C)(C)O)c4)c(-c4cnc(N5CCOCC5)s4)c3c21` [Example 76, 7-(1-(2-Hydroxy-2-methylpropyl)-1H-pyrazol-4-yl)-1-isopropyl-3-methyl-8-(2-morpholinothiazol-5-yl)-3,6-dihydroimidazo[4,5-d]pyrrolo[2,3-b]pyridin-2(1H)-one] are 10 to 100 nM, greater than 1000 nM and 10 to 100 nM.
As to `CC(C)n1c(=O)n(C)c2cnc3[nH]c(-c4cnn(CC(C)(C)O)c4)c(C45CCNCC4C5)c3c21` (stereo not drawn) [Example 88, 8-(3-Azabicyclo[4.1.0]heptan-6-yl)-7-(1-(2-hydroxy-2-methylpropyl)-1H-pyrazol-4-yl)-1-isopropyl-3-methyl-3,6-dihydroimidazo[4,5-d]pyrrolo[2,3-b]pyridin-2(1H)-one], the IC50 in experiment [1] is no more than 10 nM; in experiment [2] it was greater than 1000 nM; in experiment [3] it was 10 to 100 nM.
The corresponding values for `CCc1[nH]c2ncc3c(c2c1-c1ccc2c(cnn2C)c1)n(C1CCCC1)c(=O)n3C` [Example 97, 1-Cyclopentyl-7-ethyl-3-methyl-8-(1-methyl-1H-indazol-5-yl)-3,6-dihydroimidazo[4,5-d]pyrrolo[2,3-b]pyridin-2(1H)-one] are 10 to 100 nM, greater than 1000 nM and 100 to 500 nM.
In the same order, the values of `Cn1ncc2cc(-c3c(-c4ccncc4)[nH]c4ncc5c(c34)n(C3CCCC3)c(=O)n5C)ccc21` [Example 60, 1-Cyclopentyl-3-methyl-8-(1-methyl-1H-indazol-5-yl)-7-(pyridin-4-yl)-3,6-dihydroimidazo[4,5-d]pyrrolo[2,3-b]pyridin-2(1H)-one] are no more than 10 nM, greater than 1000 nM and no more than 10 nM.
In the same order, the values of `Cn1ncc2cc(-c3c(C(=O)NC4CC4)[nH]c4ncc5c(c34)n(C3CCCC3)c(=O)n5C)ccc21` [Example 98, 1-Cyclopentyl-N-cyclopropyl-3-methyl-8-(1-methyl-1H-indazol-5-yl)-2-oxo-1,2,3,6-tetrahydroimidazo [4,5-d]pyrrolo[2,3-b]pyridine-7-carboxamide] are 10 to 100 nM, greater than 1000 nM and 10 to 100 nM.
With `CC(C)n1c(=O)n(C)c2cnc3[nH]c(-c4cnn(CC(C)(C)O)c4)c(-c4ccc5cnccc5c4)c3c21` [Example 77, 7-(1-(2-Hydroxy-2-methylpropyl)-1H-pyrazol-4-yl)-1-isopropyl-8-(isoquinolin-6-yl)-3-methyl-3,6-dihydroimidazo[4,5-d]pyrrolo[2,3-b]pyridin-2(1H)-one], the IC50 in experiment [1] was 10 to 100 nM; in experiment [2] it was greater than 1000 nM; in experiment [3], 10 to 100 nM.
Regarding `CC(=O)N1CCN(c2cc3sc(-c4c(-c5cnn(CC(C)(C)O)c5)[nH]c5ncc6c(c45)n(C(C)C)c(=O)n6C)cc3cn2)CC1` [Example 81, 8-(6-(4-Acetylpiperazin-1-yl)thieno[3,2-c]pyridin-2-yl)-7-(1-(2-hydroxy-2-methylpropyl)-1H-pyrazol-4-yl)-1-isopropyl-3-methyl-3,6-dihydroimidazo[4,5-d]pyrrolo[2,3-b]pyridin-2(1H)-one], the figures for the IC50 in experiment [1], in experiment [2] and in experiment [3] were no more than 10 nM, greater than 1000 nM and 10 to 100 nM, respectively.
For the compound `Cn1c(=O)n(-c2ccc3occc3c2)c2c3cc(-c4ccc(CN5CCC(S(C)(=O)=O)CC5)cc4)[nH]c3ncc21` [Example 3, 1-(Benzofuran-5-yl)-3-methyl-7-(4-((4-(methylsulfonyl)piperidin-1-yl)methyl)phenyl)-3,6-dihydroimidazo[4,5-d]pyrrolo[2,3-b]pyridin-2(1H)-one], the IC50 in experiment [1], in experiment [2] and in experiment [3] was 10 to 100 nM throughout.
As for `CCOC(=O)N[C@H]1C[C@@H](n2c(=O)n(C)c3cnc4[nH]c(-c5cnn(C)c5)c(-c5ccc(OC)cc5)c4c32)C1` [Example 106, Ethyl ((1S,3S)-3-(8-(4-methoxyphenyl)-3-methyl-7-(1-methyl-1H-pyrazol-4-yl)-2-oxo-3,6-dihydroimidazo[4,5-d]pyrrolo[2,3-b]pyridin-1(2H)-yl)cyclobutyl)carbamate], the IC50 is no more than 10 nM in experiment [1], greater than 1000 nM in experiment [2] and no more than 10 nM in experiment [3].
